From patent US5246928A, “Thiadiazinones for stimulating cardiac activity” (Smith Kline & French Laboratories Limited, priority 1991, dated 1993) come the findings set out here.

In data set [1] the test system is left ventricular contractility. As to the kind of experiment: Cardiac Stimulant Activity - In vivo (Anaesthetised Cats): increase in left ventricular dp/dt max, i.v. On the set-up: species or system cat. Particulars: Felis catus, iv, read-out: ED50 (dose to increase left ventricular dp/dt max by 50%), pretreated with ganglion blocker and propranolol.
Data set [2] deals with PDE (Peak III). As to the kind of experiment: Inhibition of PDE (Peak III) from cat heart. The settings on record: read-out: IC50 × 10^-6, 1 μM cyclic AMP, pH 7.5, 37°.
Experimental: (§1) The enzyme was assayed by incubation at 37° for 4-30 min in 50 mM Tris, 5 mM MgCl2, pH 7.5 with [3-H] cyclic nucleotide (4×10^5 disintegrations min^-1) and [14-C] nucleotide 5' monophosphate (3×10^3 disintegrations min^-1). The assay was stopped by boiling, and the [3-H] […] The reaction mixture was diluted with 0.5 ml 100 mM HEPES (N-2-Hydroxyethylpiperazine-N'-2-ethanesulfonic acid), 100 mM NaCl, pH 8.5, and applied to the column. […] The recovery of product as judged by [14-C] recovery was approximately 80%. All assays were linear with time of incubation and concentration of enzyme over the range used in these experiments.
Data set [3] concerns left ventricular dp/dt max. As to the kind of experiment: Cardiac Stimulant Activity - In vivo (Conscious Dogs): left ventricular dp/dt max. On the set-up: species or system dog. Here is the method: Cardiac Stimulant Activity-In vivo (Conscious Dogs)
Oral administration caused positive inotropic responses at doses of 0.05 mg/kg and below.

Data set [4] concerns histamine-induced bronchoconstriction. As to the kind of experiment: Bronchodilatation in vivo: histamine-induced bronchoconstriction in anaesthetised guinea-pigs. Set-up: species or system guinea-pig (Dunkin Hartley). Particulars: guinea-pig, i.v.; in words. Here is the method:
Male guinea-pigs of the Dunkin Hartley strain (530 g±6 g) were anaesthetised with Sagatal (pentobarbital sodium) (90 mg/kg i.p.). Airway resistance was measured using a modification of the classical Konzett-Rossler technique (Versuchsanordnung zu Untersuchungen an der Bronchialmuskulatur. Naunyn-Schmiedebergs Arch. Exp. Path. Pharmak., 195: pp 71-74, (1940)). A dose of histamine which gave approximately 150% increase in airway resistance was selected for i.v. administration. Bolus doses of the compound of Example 1 were administered (i.v.) one minute before the histamine challenge.
The threshold dose for this compound was 1×10^-8 mol/kg.

The subject of data set [5] is PDE (Peak I). As to the kind of experiment: Substrate kinetics of PDE (Peak I) from cat heart. In kind it is biochemical. The settings on record: without calmodulin.
Experimental: as §1
Setting [6] is: in words, in contrast to Example 1.

As a reminder, the IC50 is the concentration at which inhibition is half-maximal. As to `O=C1CCC(c2ccc(-n3ccc(=O)cc3)cc2)=NN1` [Example 2, 6-[4-(4-Oxo-1,4-dihydropyridin-1-yl)phenyl]-4,5-dihydro-3(2H)-pyridazinone], the ED50 in data set [1] is 0.4 µmol/kg. The IC50 in data set [2] was 5090 nM.

In the case of `CC1CC(=O)NN=C1c1ccc(-n2ccc(=O)cc2)cc1` (stereo not shown) [Example 1, 5-Methyl-6-[4-(4-oxo-1,4-dihydropyridin-1-yl)phenyl]-4,5-dihydro-3(2H)-pyridazinone], in data set [2], the IC50 amounted to 410 nM. The “changes in blood pressure or heart rate” value in data set [3] (conscious dogs) is “without changes in blood pressure or heart rate”. Further, the “duration of positive inotropic responses” value in data set [3] (conscious dogs, 3 hours = maximum duration of measurement) is listed as “more than 3 hours”. The “'force-rate' selectivity” value in data set [3] (conscious dogs, in words) is reported as “particularly beneficial”. The “effect on histamine-induced bronchoconstriction” value in data set [4] is on record as “reduced the histamine-induced bronchoconstriction”.

As to `O=C1CC2CCc3cc(-n4ccc(=O)cc4)ccc3C2=NN1` (stereo not shown) [Example 13, 8-(4-Oxo-1,4-dihydropyridin-1-yl)-4,4a, 5,6-tetrahydrobenzo[h]cinnolin-3(2H)-one], in data set [1], the ED50 was found to be 0.78 µmol/kg. Moreover, the IC50 in data set [2] turned out to be 6600 nM.

In the case of `C[C@H]1CC(=O)NN=C1c1ccc(-n2ccc(=O)cc2)cc1` [Example 17, (S)-5-Methyl-6-[4-(4-oxo-1,4-dihydropyridin-1-yl)phenyl]-4,5-dihydro-3(2H)-pyridazinone], in data set [2], the IC50 was found to be 2580 nM.

For `Nc1cc(-c2ccncc2)c[nH]c1=O` [Amrinone, reference compound], in data set [3] (setting [6]), the “activity in comparison with compound of Example 1” value is “less active” and the “duration in comparison with compound of Example 1” value was “shorter duration”.

Regarding `O=c1ccn(-c2ccc(-c3n[nH]c(=O)s3)cc2)cc1` [Example 14, 5-[4-(4-Oxo-1,4-dihydropyridin-1-yl)phenyl]-1,3,4-thiadiazol-2(3H)-one], the ED50 in data set [1] was determined as 0.82 µmol/kg. For the same compound, the IC50 in data set [2] turned out to be 2260 nM.

As a reminder, the Km is the concentration of substrate that gives half-maximal velocity. Turning to `Nc1nc2c(ncn2[C@@H]2O[C@@H]3COP(=O)(O)O[C@H]3[C@H]2O)c(=O)[nH]1` [cyclic GMP], in data set [5], the Km worked out at 1.8 µM and the “Relative Vmax” value was determined as 1.1.

For the compound `C[C@@H]1CC(=O)NN=C1c1ccc(-n2ccc(=O)cc2)cc1` [Example 16, (R)-5-Methyl-6-[4-(4-oxo-1,4-dihydropyridin-1-yl)phenyl]-4,5-dihydro-3(2H)-pyridazinone], the IC50 in data set [2] was 230 nM.

Regarding `O=C1CSC(c2ccc(-n3ccc(=O)cc3)cc2)=NN1` [Example 4, 2-[4-(4-Oxo-1,4-dihydropyridin-1-yl)phenyl]-4H,6H-1,3,4-thiadiazin-5-one], the ED50 in data set [1] was found to be 0.06 µmol/kg. Moreover, the IC50 in data set [2] is 1590 nM.

On to `O=c1ccn(-c2ccc(-c3c[nH]c(=O)cn3)cc2)cc1` [Example 11, 5-[4-(4-Oxo-1,4-dihydropyridin-1-yl)phenyl]-2(1H)-pyrazinone], for which the IC50 in data set [2] is 2640 nM.

As for `CC1NC(=O)NN=C1c1ccc(-n2ccc(=O)cc2)cc1` (stereo not shown) [Example 7, 6-[4-(4-Oxo-1,4-dihydropyridin-1-yl)phenyl]-5-methyl-4,5-dihydro-1,2,4-triazin-3(2H)-one], the ED50 in data set [1] is 0.11 µmol/kg. The IC50 in data set [2] was 540 nM.

In the case of `O=C1COC(c2ccc(-n3ccc(=O)cc3)cc2)=NN1` [Example 5, 2-[4-(4-Oxo-1,4-dihydropyridin-1-yl)phenyl]-4H,6H-1,3,4-oxadiazin-5-one], the ED50 in data set [1] is 0.22 µmol/kg. The IC50 in data set [2] worked out at 4330 nM.

As to `O=C1NN=C2c3ccc(-n4ccc(=O)cc4)cc3CC2S1` (stereo not shown) [Example 9, 7-(4-Oxo-1,4-dihydropyridin-1-yl)-9,9a-dihydroindeno[1,2-e][1,3,4]thiadiazin-2(3H)-one], the ED50 in data set [1] amounted to 0.05 µmol/kg. For the same compound, the IC50 in data set [2] was 1250 nM.

As for `CC12Cc3cc(-n4ccc(=O)cc4)ccc3C1=NNC(=O)S2` (stereo not shown) [Example 8, 7-(4-Oxo-1,4-dihydropyridin-1-yl)-9a-methyl-9,9a-dihydroindeno[1,2-e][1,3,4]thiadiazin-2(3H)-one], in data set [1], the ED50 turned out to be 0.07 µmol/kg. Further, in data set [2], the IC50 stood at 1320 nM.

As for `O=C1NCC(c2ccc(-n3ccc(=O)cc3)cc2)=NN1` [Example 6, 6-[4-(4-Oxo-1,4-dihydropyridin-1-yl)phenyl]-4,5-dihydro-1,2,4-triazin-3(2H)-one], the ED50 in data set [1] stood at 0.23 µmol/kg. Moreover, the IC50 in data set [2] came out at 1750 nM.

Regarding `CC1SC(=O)NN=C1c1ccc(-n2ccc(=O)cc2)cc1` (stereo not shown) [Example 10, 5-[4-(4-Oxo-1,4-dihydropyridin-1-yl)phenyl]-6-methyl-3H,6H-1,3,4-thiadiazin-2-one], the ED50 in data set [1] was 0.07 µmol/kg. Moreover, the IC50 in data set [2] stood at 440 nM.

For the compound `O=c1ccn(-c2ccc(-c3ccc(=O)[nH]n3)cc2)cc1` [Example 3, 6-[4-(4-Oxo-1,4-dihydropyridin-1-yl)phenyl]-3(2H)-pyridazinone], the ED50 in data set [1] worked out at 0.47 µmol/kg. Moreover, in data set [2], the IC50 stood at 3990 nM.
